# Data as given in US10603322B2, “Therapeutic targeting of casein kinase 1δ in breast cancer” (The Scripps Research Institute, priority 2015, dated 2020).
# Experiments:
# [1] = tested on: β-catenin; test: β-catenin expression by immunoblot in breast cancer cells; type: cell-based, human; settings: 18 hr
# Description: SDS-PAGE gel electrophoresis was performed using NuPAGE 4-12% Bis-Tris gels (Invitrogen) and transferred to PVDF membranes by semi-dry transfer using trans-blot transfer medium (Biorad). Membranes were blocked in Odyssey blocking buffer (LI-COR Biosciences) and incubated overnight at 4° C. with primary antibodies. After repeated washes with TBST (20 mM Tris, pH 7.6, 140 mM NaCl and 0.1% Tween-20) blots were incubated with the appropriate IRDye-conjugated secondary antibody (LI-COR Biosciences) and imaged using the LI-COR Odyssey. Bands were quantified using the Odyssey software (LI-COR Biosciences). The following antibodies were used in this study: CK1δ and Histone H4 (Abcam), CK1ε, c-Myc (9E10), Cyclin-D1 and β-actin (Santa Cruz), β-catenin (Cell Signaling), GAPDH (Millipore) and CD44 (R&D Systems).
# [2] = tested on: MDA-MB-231 cells; test: Clonogenic growth assay; type: cell-based, human
# Description: (§1) Cell proliferation was measured 72 hr after SR-3029 or vehicle treatment using Cell-Titer Glo (Promega) according to the manufacturers' instructions. EC50 values were determined using non-linear regression and a four-parameter algorithm (GraphPad Prism5). For clonogenic assays, cells were plated in 6-well dishes in triplicate at a density of 500-1000 cells per well. After overnight incubation, SR-3029 or vehicle (DMSO) was added to media for 72 hr and cells were allowed to grow out for 7-10 days, during which media was changed every 2-3 days in the absence of compound. Colonies were fixed in 4% paraformaldehyde/PBS and stained with 0.5% methylene blue in 50% ethanol for 1 hr at room temperature and de-stained with water. Colonies with greater than 50 cells were counted using a low magnification light microscope.
# [3] = tested on: MCF7 breast cancer cells; test: Clonogenic growth assay; type: cell-based, human
# Description: as §1
# [4] = biological target: FLT3 (Homo sapiens, UniProt P36888); settings: cited from earlier work
# [5] = tested on: Wnt-3a-directed induction of the TCF reporter; test: Wnt-3a-induced TCF-dependent luciferase reporter assay in HEK293T cells; type: cell-based, human
# Description: MDA-MB-231 or HEK293 cells stably expressing the TCF luciferase reporter 7TFP (39) were transfected with β-catenin-S33Y or empty vector (pcDNA). After 18 hr cells were seeded onto a 96-well plate at a density of 6000 cells/well. After 24 hr cells were treated with SR-3029 or vehicle and incubated for 6 hr prior to addition of 1 μg/ml recombinant human Wnt3a (R&D Systems) or PBS. After 3 hr, reporter assays were performed using BriteLite Plus (Perkin Elmer), which was added in equal volume directly to the media and luminescence read using a Spectramax plate reader (Molecular Devices).
# [6] = tested on: CK1δ and CK1ε; settings: cited from earlier work
# [7] = tested on: BT474 (HER2+) tumor xenografts; test: Established orthotopic tumor xenograft; type: in vivo, nude mice; settings: 20 mg/kg daily i.p.; tumors 100-mm^3 before treatment
# From the text: (§2) All animal studies are approved by the Scripps Florida IACUC. Stable pools of MDA-MB-231-Luc, MDA-MB-231, MDA-MB-468, SKBR3 or BT474 cells were established by injection of 2×10^6 cancer cells into the mammary fat pads of 6-week old female athymic nude mice (Charles River Laboratories). Establishment of BCM-4013 patient derived xenografts were as described (19). Briefly, fresh xenograft tumor fragments (˜1 mm^3) were transplanted into the cleared mammary fat pad of recipient SCID/Bg mice (Charles River Laboratories). Mice were treated with SR-3029 or vehicle (10:10:80, DMSO:Tween-80:Water) at 20 mg/kg daily by i.p. injection. Tumor volumes were measured as the indicated intervals using calipers or by luminescence imaging using the IVIS 100 imager (exposure time, 1-60 sec; binning 8; field of view 15-cm; f/stop 1; open filter) following subcutaneous injection of luciferin (15 mg/ml, Goldbio Technology). Average radiance (p/s/cm^2/sr) was determined from tumor region-of-interest (ROI) using Living-Image (Xenogen) analysis software.
# [8] = tested on: SKBR3 (HER2+) tumor xenografts; test: Established orthotopic tumor xenograft; type: in vivo, nude mice; settings: 20 mg/kg daily i.p.; tumors 100-mm^3 before treatment
# From the text: as §2
# [9] = tested on: MDA-MB-468 (TNBC) tumor xenografts; test: Established orthotopic tumor xenograft; type: in vivo, nude mice; settings: 20 mg/kg daily i.p.; tumors 100-mm^3 before treatment
# From the text: as §2
# Sequence of FLT3 (P36888 564-993 limits assumed): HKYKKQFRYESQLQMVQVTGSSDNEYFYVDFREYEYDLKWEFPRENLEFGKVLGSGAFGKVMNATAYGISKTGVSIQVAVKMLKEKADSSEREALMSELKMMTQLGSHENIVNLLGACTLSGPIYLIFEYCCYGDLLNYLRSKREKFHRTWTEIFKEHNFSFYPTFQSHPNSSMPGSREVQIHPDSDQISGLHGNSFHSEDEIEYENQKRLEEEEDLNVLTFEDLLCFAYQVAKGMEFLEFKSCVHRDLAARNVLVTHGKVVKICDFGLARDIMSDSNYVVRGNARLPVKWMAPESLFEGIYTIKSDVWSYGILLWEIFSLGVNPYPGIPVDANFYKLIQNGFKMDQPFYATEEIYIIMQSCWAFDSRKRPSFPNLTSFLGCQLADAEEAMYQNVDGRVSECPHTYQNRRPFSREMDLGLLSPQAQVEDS
compound,measurement,setting,value
Fc1cccc(-n2cnc3c(NCc4nc5ccc(F)c(F)c5[nH]4)nc(N4CCOCC4)nc32)c1 [SR-3029],"expression of the active, nuclear pool of β-catenin","[1]; MDA-MB-231, MDA-MB-436, MDA-MB-468 and BT474 cells, 30 nM",markedly reduced
same,"unphosphorylated, active form of β-catenin (ABC)",[1]; MDA-MB-231 cells,reduction
same,clonogenic growth and survival,[2],completely blocked
same,clonogenic growth inhibition with forced overexpression of CK1δ,[2]; CK1δ overexpressing vs GFP-expressing controls,sufficient to rescue the growth inhibitory effects
same,colony forming capacity,[3],no effect
same,sensitivity of MCF7 cells with forced overexpression of CK1δ,"[3]; short-term and long-term growth assays, CK1δ vs GFP",sensitizes them to SR-3029
same,FLT3 off-target activity,[4],common (and weak) off-target
same,Wnt-3a-directed induction of the TCF reporter,"[5]; 1 μg/ml Wnt-3a, 3 hr",abolished
same,TCF reporter activity with constitutively active β-catenin (S33Y),[5]; forced expression of β-catenin S33Y,refractory
same,"type of inhibition, potency and selectivity",[6],ATP competitive inhibitor with exceptional potency and selectivity
same,tumor growth,[7],marked tumor growth inhibition
same,tumor growth,[8],marked tumor growth inhibition
same,tumor growth,[9],marked tumor growth inhibition
